Legend:
Assay type in all cases: in vivo, Sprague-Dawley male rats
[1] = system: MDA and 4-HNE in the large intestinal mucosa; assay: Concentrations of MDA and 4-HNE in large intestinal mucosa of rats with DSS-induced colitis; conditions: all groups: 1, 5 and 20 mg/kg/day s.c., 8 days DSS; no significant differences among the administration groups; FIG. 4(A)
Method: (§1) The edaravone as synthesized above was dissolved in a small amount of 1 N sodium hydroxide solution. Thereafter, the pH thereof was adjusted to be around neutral.
(§2) 6-week-old Sprague-Dawley male rats (Clea Japan, Inc.) were used. According to the method described in the previous report (Araki Y. et al., Scand J Gastroentero, 35, 1060-1067, 2000), colitis was induced to develop in the rats as follows. That is to say, 4% (w/w) dextran sulfate sodium (DSS; molecular weight: 5,000; Wako Pure Chemical Industries, Ltd., Osaka) was added to a powder diet MF (Oriental Yeast Co., Ltd.). The rats were fed with the thus obtained mixed diet at an amount of 30 g/day/rat for 8 days. […]
Hyperoxidation of lipids is an important mechanism regarding tissue injury. […] Accordingly, the concentrations of MDA and 4-HNE in the large intestinal mucosa were measured, and the obtained values were used as indicators of the state of reactive oxygen species (ROS) in tissues (Matsumura N. et al., Pancreas, 22, 53-7, 2001). That is, the large intestinal mucosa was homogenized with 9 times its volume of 50 mmol/l Tris-buffer (pH 8.0) containing 0.5% Triton X-100, and the concentrations were measured using an assay kit, Lipid peroxidation assay kit (Calbiochem, La Jolla, Calif., U.S.A.). […]

[2] = system: myeloperoxidase activity in the large intestinal mucosa; assay: Myeloperoxidase activity in large intestinal mucosa of rats with DSS-induced colitis; conditions: 8 days DSS, FIG. 3(B)
Method: as §1, §2
Myeloperoxidase activity used as an indicator of inflammation in the large intestinal mucosa was measured by the method described in the previous report (Araki Y. et al., Clin Exp Immunol, 119, 264-269, 2000). […] The activity of the obtained homogenate was observed as a change in the absorbance at 460 nm obtained as a result of the reaction of H2O2 with o-dianisidin.
Hyperoxidation of lipids is an important mechanism regarding tissue injury. […] Accordingly, the concentrations of MDA and 4-HNE in the large intestinal mucosa were measured, and the obtained values were used as indicators of the state of reactive oxygen species (ROS) in tissues (Matsumura N. et al., Pancreas, 22, 53-7, 2001). […]

[3] = system: Dextran sulfate sodium (DSS)-induced colitis; assay: Histological evaluation of DSS-induced colitis (damage score); conditions: 8 days DSS; for damage score vs control group: FIG. 3(A)
Method: as §1
(§3) 6-week-old Sprague-Dawley male rats (Clea Japan, Inc.) were used. According to the method described in the previous report (Araki Y. et al., Scand J Gastroentero, 35, 1060-1067, 2000), colitis was induced to develop in the rats as follows. That is to say, 4% (w/w) dextran sulfate sodium (DSS; molecular weight: 5,000; Wako Pure Chemical Industries, Ltd., Osaka) was added to a powder diet MF (Oriental Yeast Co., Ltd.). The rats were fed with the thus obtained mixed diet at an amount of 30 g/day/rat for 8 days. With regard to edaravone administration groups, from immediately after initiation of the administration of DSS, edaravone was subcutaneously injected into the back of each rat, at a dose of 1 mg/kg/day, 5 mg/kg/day, or 20 mg/kg/day, which was dividedly administered in the morning and evening. With regard to a control group, a normal saline solution was subcutaneously injected into the back of each rat in the same above manner.
The mucosa located at 5 mm from the anus side was fixed with a Carnoy's fluid for 3 hours, and was then embedded in paraffin. Thereafter, a tissue fragment with a thickness of 5 μm was prepared, followed by hematoxylin-eosin staining. Scoring of colitis was conducted in accordance with the method described in the previous report (Araki Y. et al., Scand J Gastroentero, 35, 1060-1067, 2000). Namely, the degree and size of each of the following 3 items: (i) the absence of the mucosal epithelium, (ii) deformation of crypts, and (iii) the level of infiltration of inflammatory cells, are expressed in the following point system: 0: none; 1: slight and localized; 2: moderate and localized; 3: moderate and broad; and 4: severe and broad. The total points regarding the above 3 items were summed up, and the obtained value was defined as the histological colitis score (damage score) of a rat.
The results are shown as mean±SEM. The comparison between groups was carried out by Fisher's PLSD Test. […]

[4] = system: interleukin-6 in the plasma; assay: Concentration of interleukin-6 in plasma of rats with DSS-induced colitis (ELISA); conditions: 8 days DSS, FIG. 4(B)
Method: as §1
as §3, with “With regard to a control group, a normal saline solution was subcutaneously injected into the back of each rat in the same above manner.” left out
The concentration of interleukin-6 in the plasma was measured as an indicator of a systemic inflammatory reaction. That is to say, the blood was centrifuged at 10,000 rpm, and then the concentration of interleukin-6 in the plasma was measured by the ELISA method (Rat IL-6 ELISA KIT, BioSource Europe, S.A., Belgium). […]

[5] = system: Dextran sulfate sodium (DSS)-induced colitis; assay: Evaluation of DSS-induced colitis by naked eyes (wet weight of large intestine, injured mucosa area); conditions: all groups: 1, 5 and 20 mg/kg/day s.c., 8 days of 4% DSS diet
Method: as §1, §2
8 days later, the rats were subjected to anatomy. […] Thereafter, the large intestine (the colon and the rectum) was excised, and the wet weight of the organ was measured. The degree of the injured large intestinal mucosa was evaluated by naked eyes according to the method described in the previous report (Araki Y. et al., Scand J Gastroentero, 35, 1060-1067, 2000). That is, the areas of portions, on which a change in the color tone of the mucosa (redness), an attachment of blood clots, a collapse of mucosal wall area, edema, or erosion were observed, were measured. […]

[6] = all groups: 1, 5 and 20 mg/kg/day s.c.

## CC1=NN(c2ccccc2)C(=O)C1 [edaravone, 3-methyl-1-phenyl-2-pyrazolin-5-one]
[1]
  concentrations of MDA and 4-HNE in the large intestinal mucosa vs control group: lower
[2]; 20 mg/kg/day s.c.
  myeloperoxidase activity in the large intestinal mucosa vs control group: significantly lower
[2]; [6]
  myeloperoxidase activity in the large intestinal mucosa vs control group: lower
[3]; 20 mg/kg/day s.c.
  damage score vs control group: significantly lower
[3]; 1, 5 and 20 mg/kg/day s.c., hematoxylin-eosin, FIG. 2
  edema formed in the submucosal layer and infiltration of inflammatory cells (large intestine tissue image): suppressed
[3]; [6]
  damage score vs control group: lower
[4]; 20 mg/kg/day s.c.
  concentration of IL-6 in the plasma vs control group: significantly lower
[4]; [6]
  concentration of IL-6 in the plasma vs control group: lower
[5]; FIG. 1(B)
  injured mucosa area vs control group: significantly smaller
[5]; divided morning and evening, FIG. 1(A)
  wet weight of the large intestine vs control group: significantly lower

Source: US20060135588A1, “Preventive and/or therapeutic drugs for inflammatory intestinal diseases” (priority 2002, published 2006)
